From patent publication US20150181873A1, “HERBICIDE-RESISTANT SUNFLOWER PLANTS, POLYNUCLEOTIDES ENCODING HERBICIDE=RESISTANT ACETO HYDROXY ACID SYNTHASE LARGE SUBUNIT PROTEINS, AND METHODS OF USE” (NIDERA S.A., priority 2013, published 2015)

Experiments:
Assay type in all cases: in vivo, Helianthus annuus
[1] = test system: sunflower hybrid TH11 (A122T); test: Greenhouse imazapir dose response, TH11; conditions: 14 DAT
Procedure: (§1) A greenhouse study was conducted to quantify and contrast the imazapir sensivity of the mutants A122T and A205V in different genetic backgrounds at the whole plant level in sunflower. Seeds of the different sunflower lines that were used in this study were obtained under field conditions.
(§2) Seeds were sown in Petri dishes and, after germination, plantlets were transplanted to pots of 10 cm of diameter in a potting media consisting of equal parts of vermiculite, soil and sand. Plants were grown in a greenhouse under natural light conditions supplemented with 400 W sodium halide lamps to provide a 16 hrs daylength. Day/night temperatures were 25 and 20° C., respectively. At the V2 stage 10 plants of each genotype were randomly assigned to each treatment consisting of […] imazapir doses (0, 40, 80, 160, 240, 320, 400 and 480 g ai/ha), and a zero-time biomass determination. Experiment was arranged as a randomized block design with a full factorial (sunflower line×treatment) arrangement of treatments and 10 replications.
(§3) On the day of herbicide application ten plants of each genotype were cut at the cotyledonal node and dried at 60° C. for 48 hrs zero-time for dried weight determination. […] Height was determined as the distance between the cotyledonal node and the apex of each plant. For root biomass determination, each plant was taken from the pot and the potting media was washed out from the roots. Above ground biomass data from each line were converted to biomass accumulation after application by subtracting the appropriate average zero-time biomass from each sample. Dry biomass data were converted to percentages of the untreated control plants within each line to allow direct comparisons between groups.

[2] = test system: sunflower restorer line GIM 5-6 (A122T); test: Greenhouse imazapir dose response, GIM 5-6; conditions: GIM5-6 (A122T), 14 DAT
Procedure: as §1, §2, §3

[3] = test system: sunflower line GM40 (A122T); test: Greenhouse imazapir dose response, GM40; conditions: 14 DAT
Procedure: as §1, §2, §3

**Q.** Which results are given for `CC(C)C1(C)N=C(c2ncccc2C(=O)O)NC1=O` (centres unmarked) [Imazapyr, imazapyr]?
**A.** Phytotoxicity Index ([1]; 0.5x (40 g ai/ha)): 0.4; biomass accumulation, % of untreated ([1]; 0.5x (40 g ai/ha)): 96.6%; plant height, % of untreated ([1]; 0.5x (40 g ai/ha)): 100.4%; root dry weight, % of untreated ([1]; 0.5x (40 g ai/ha)): 100%; Phytotoxicity Index ([1]; 1x (80 g ai/ha)): 0.4; biomass accumulation, % of untreated ([1]; 1x (80 g ai/ha)): 93.9%; plant height, % of untreated ([1]; 1x (80 g ai/ha)): 99.9%; root dry weight, % of untreated ([1]; 1x (80 g ai/ha)): 99.0%; Phytotoxicity Index ([1]; 2x (160 g ai/ha)): 0.4; biomass accumulation, % of untreated ([1]; 2x (160 g ai/ha)): 81.6%; plant height, % of untreated ([1]; 2x (160 g ai/ha)): 92.0%; root dry weight, % of untreated ([1]; 2x (160 g ai/ha)): 86.1%; Phytotoxicity Index ([1]; 3x (240 g ai/ha)): 0.5; biomass accumulation, % of untreated ([1]; 3x (240 g ai/ha)): 75.8%; plant height, % of untreated ([1]; 3x (240 g ai/ha)): 90.5%; root dry weight, % of untreated ([1]; 3x (240 g ai/ha)): 81.5%; Phytotoxicity Index ([1]; 4x (320 g ai/ha)): 1.0; biomass accumulation, % of untreated ([1]; 4x (320 g ai/ha)): 75.0%; plant height, % of untreated ([1]; 4x (320 g ai/ha)): 90.8%; root dry weight, % of untreated ([1]; 4x (320 g ai/ha)): 72.6%; Phytotoxicity Index ([1]; 5x (400 g ai/ha)): 2.0; biomass accumulation, % of untreated ([1]; 5x (400 g ai/ha)): 60.1%; plant height, % of untreated ([1]; 5x (400 g ai/ha)): 84.4%; root dry weight, % of untreated ([1]; 5x (400 g ai/ha)): 68.9%; Phytotoxicity Index ([1]; 6x (480 g ai/ha)): 2.5; biomass accumulation, % of untreated ([1]; 6x (480 g ai/ha)): 59.6%; plant height, % of untreated ([1]; 6x (480 g ai/ha)): 84.4%; root dry weight, % of untreated ([1]; 6x (480 g ai/ha)): 45.3%; biomass accumulation, % of untreated ([2]; 0.5x (40 g ai/ha)): 100.0%; plant height, % of untreated ([2]; 0.5x (40 g ai/ha)): 100.0%; root dry weight, % of untreated ([2]; 0.5x (40 g ai/ha)): 100%; biomass accumulation, % of untreated ([2]; 1x (80 g ai/ha)): 96.4%; plant height, % of untreated ([2]; 1x (80 g ai/ha)): 100.0%; root dry weight, % of untreated ([2]; 1x (80 g ai/ha)): 88.0%; biomass accumulation, % of untreated ([2]; 2x (160 g ai/ha)): 97.7%; plant height, % of untreated ([2]; 2x (160 g ai/ha)): 99.1%; root dry weight, % of untreated ([2]; 2x (160 g ai/ha)): 90.0%; biomass accumulation, % of untreated ([2]; 3x (240 g ai/ha)): 95.8%; plant height, % of untreated ([2]; 3x (240 g ai/ha)): 98.1%; root dry weight, % of untreated ([2]; 3x (240 g ai/ha)): 98.0%; biomass accumulation, % of untreated ([2]; 4x (320 g ai/ha)): 90.8%; plant height, % of untreated ([2]; 4x (320 g ai/ha)): 91.0%; root dry weight, % of untreated ([2]; 4x (320 g ai/ha)): 80.0%; biomass accumulation, % of untreated ([2]; 5x (400 g ai/ha)): 81.9%; plant height, % of untreated ([2]; 5x (400 g ai/ha)): 94.3%; root dry weight, % of untreated ([2]; 5x (400 g ai/ha)): 80.0%; biomass accumulation, % of untreated ([2]; 6x (480 g ai/ha)): 78.0%; plant height, % of untreated ([2]; 6x (480 g ai/ha)): 85.8%; root dry weight, % of untreated ([2]; 6x (480 g ai/ha)): 65.8%; biomass accumulation, % of untreated ([3]; 0.5x (40 g ai/ha)): 96.5%; plant height, % of untreated ([3]; 0.5x (40 g ai/ha)): 99.6%; root dry weight, % of untreated ([3]; 0.5x (40 g ai/ha)): 100%; biomass accumulation, % of untreated ([3]; 1x (80 g ai/ha)): 94.1%; plant height, % of untreated ([3]; 1x (80 g ai/ha)): 97.4%; root dry weight, % of untreated ([3]; 1x (80 g ai/ha)): 100%; biomass accumulation, % of untreated ([3]; 2x (160 g ai/ha)): 97.6%; plant height, % of untreated ([3]; 2x (160 g ai/ha)): 95.2%; root dry weight, % of untreated ([3]; 2x (160 g ai/ha)): 100%; biomass accumulation, % of untreated ([3]; 3x (240 g ai/ha)): 95.8%
